We go through eight compounds from patent US20220296584A1, “Membrane Active Molecules” (priority 2017, published 2022).

The subject of data set [1] is mouse. Nature of the data set: Anesthetic effect in mice after subcutaneous or intravenous injection of aqueous solutions. Type of data set: in vivo.
Experimental: Butyric acid was dissolved in water to form an 8 M solution. 0.5 mL of the 8 M solution of butyric acid was injected subcutaneously (at the back of the neck) into the mouse.
3-hydroxybutyric acid was dissolved in water to form 1 M, 1.5 M, and 2 M solutions. 0.2 mL of a 1.5 M solution of 3-hydroxybutyric acid was injected into a tail vein of a CD-1 mouse. […] This was repeated for at least 2 more times on subsequent days.
Ethylmalonic acid was dissolved in water to form 2 M, 3 M, and 4 M solutions. 0.2 mL of a 3 M solution of ethylmalonic acid was injected into a tail vein of a mouse. […] This was repeated for at least 2 more times on subsequent days.
Ethylmalonic acid was dissolved in water to form a 4 M solution. 0.5 mL of the 4 M solution of ethylmalonic acid was injected subcutaneously into the mouse.
The test system of data set [2] is CF-1 mice. Nature of the data set: Anticonvulsant test: intravenous metrazol (pentylenetetrazol) infusion, time to twitch and seizure. The class given is in vivo. Particulars: individual CF-1 mouse (Entry). As to the method:
CF-1 mice were used in this study. Number 20 PE tubing to cannulate a mouse tail vein was used. An infusion pump was used to deliver a solution at a rate of 0.34 mL/min. A hemostat was used to prevent backflow in the PE tubing before the experiment stated. To begin the experiment, the hemostat that was clamped to the PE 20 tubing was removed, the infusion of the solution was started into the tail IV of the mouse, and the timer was started.
The study reflects the time in seconds from the start of the infusion to the time of twitch and onset of seizure, or 90 seconds, whichever is sooner. When the seizure occurs, the infusion is turned off.
As a control, metrazol (pentylenetetrazol) in a 0.5% solution (5 mg/mL) in water was prepared. Pentylenetetrazol is used as a control to study seizure phenomena in and to identify compounds that may control seizure susceptibility. Solutions of 8 M butyric acid and 1.5 M 3-hydroxybutyric acid were made.
The time to twitch and time to seizure of the mouse in seconds is recorded in Tables 3-5, below.

Data set [3] concerns Tadpoles. As to the kind of experiment: Tadpole movement suppression (anesthetic efficacy). The class given is in vivo. The procedure:
Tadpoles were placed in a petri dish containing aquarium water. Four to eight tadpoles were placed in each petri dish. The aquarium water contained the specified test compound at the listed concentration. When the tadpoles stopped moving, a plastic rod was used to elicit motion once again by contact between the rod and tadpole. […] From this and the number of subjects, the percent of tadpoles in which movement was suppressed were calculated.
After 1 to 30 minutes, they were again contacted with a rod to ensure the anesthetic effect had worn off
In some examples, subanesthetic concentrations of ethanol were added into the aquarium water. Tadpoles in which movement was prevented with exposure to a test compound and ethanol but not with exposure to a test compound alone were classified as partial anesthetics.

Data set [4] deals with mice. The settings on record: intravenously; for Observed effect on the animals: 62.5 mM solution in intralipid.
Where [5] appears, read: 1.5 M 3-hydroxybutyric acid solution plus metrazol.
[6] abbreviates: 8 M butyric acid solution plus metrazol.
[7] abbreviates: 0.5% metrazol tail vein infusion 0.34 mL/min.

Several values for one entry are separate records, joined by “and”; a condition that tells them apart may be missing. Identical values can stand only once. Like-named read-outs stand apart in the source and are kept apart here.

On to `CC(O)CC(=O)O` (stereo not drawn) [3-hydroxybutyric acid], for which, in data set [1] (0.2 mL of 1.5 M solution in water, tail vein, CD-1 mouse), the “Observed effect on the mouse” value is “became unconscious or anesthetic”. The “Observed effect on the mouse” value in data set [1] (1 M solution in water, tail vein, CD-1 mouse) is given as “did not have any observable effect”. For the same compound, the Lethality entry in data set [1] (2 M solution in water, tail vein, CD-1 mouse) is on record as “lethal”. In data set [2] (setting [5]), the “3-Hydroxybutyric Acid and Metrazol Time to Seizures” value was 74 seconds and 53 seconds (3×) and 48 seconds (2×) and 65 seconds and 61 seconds; the “3-Hydroxybutyric Acid and Metrazol Time to Twitch” value is 54 s and 49 s and 47 s and 38 s and 50 s and 45 s and 41 s and 56 s.

In the case of `CCCC(=O)O` [Butyric acid], the “Movement suppressed (%)” value in data set [3] (Concentration (mM): 62.5), in data set [3] (Concentration (mM): 125), in data set [3] (Concentration (mM): 250) and in data set [3] (Concentration (mM): 500) was 100% throughout. Moreover, the Lethality result in data set [1] (0.2 mL of 8 M solution in water, intravenously through mouse tail vein) is “lethal”. Besides, the “Time until mouse woke up” value in data set [1] (0.5 mL of 8 M solution in water, subcutaneously (back of the neck), mouse) is recorded as “several hours later”. Further, the “Butyric Acid and Metrazol Time to Seizures” value in data set [2] (setting [6]) was 51 seconds and 50 seconds (2×) and 47 seconds and 57 seconds (3×) and 42 seconds and 66 seconds and 41 seconds and 44 seconds and 38 seconds and 65 seconds. Also, in data set [2] (setting [6]), the “Butyric Acid and Metrazol Time to Twitch” value was 38 seconds and 42 seconds and 44 seconds and 50 seconds and 34 seconds (2×) and 53 seconds (2×) and 48 seconds and 36 seconds (2×) and 35 seconds (2×).

On to `CCC(C(=O)O)C(=O)O` [Ethyl Malonic Acid, 2-Ethylmalonic acid], for which the “Movement suppressed (%)” value in data set [3] (Concentration (mM): 16) came out at 0%; in data set [3] (Concentration (mM): 62.5), 0%; in data set [3] (Concentration (mM): 125), 100%; in data set [3] (Concentration (mM): 250), 100%. Further, the “Observed effect on the mouse” value was “became unconscious” in data set [1] (0.2 mL of 3 M solution in water, tail vein, mouse); “became sedated, anesthetized, or lose consciousness” in data set [1] (0.5 mL of 4 M solution in water, subcutaneously, mouse); “did not have any observable effect” in data set [1] (2 M solution in water, tail vein, mouse). For the same compound, the Lethality entry in data set [1] (4 M solution in water, tail vein, mouse) is given as “lethal”.

In the case of `C1CCc2nnnn2CC1` [Metrazol, pentylenetetrazol, reference compound], in data set [2] (setting [7]), the “Metrazol alone Time to Seizures” value was 43 seconds (2×) and 42 seconds (2×) and 59 seconds and 45 seconds and 39 seconds and 49 seconds (2×); the “Metrazol alone Time to Twitch” value is 34 seconds (2×) and 33 seconds and 36 seconds (2×) and 37 seconds and 52 seconds and 31 seconds and 43 seconds.

Take `CCOC(=O)C(CC)(C(=O)OCC)c1ccccc1` [diethyl ethylphenylmalonate]: the “Observed effect on the animals” value in data set [4] is “lethargic and those loss coordination”. Besides, the Lethality result in data set [4] (250 mM solution in intralipid) and in data set [4] (1M solution in intralipid) was “lethal” in each case.

As to `CCOC(=O)[C@@H](O)c1ccccc1` [ethyl (S)-(+)-mandelate], in data set [4], the “Observed effect on the animals” value is “lethargic and those loss coordination”. For the same compound, the Lethality entry in data set [4] (250 mM solution in intralipid) and in data set [4] (1M solution in intralipid) was “lethal” throughout.

For `CCCC(=O)OCC` [ethyl butyrate], the “Observed effect on the animals” value in data set [4] is “lethargic and those loss coordination”. Also, the Lethality entry in data set [4] (250 mM solution in intralipid) and in data set [4] (1M solution in intralipid) was “lethal” in each case.

Turning to ethyl isovaleric acid, the “Observed effect on the animals” value in data set [4] is “lethargic and those loss coordination”.
